# US20160025704A1, “METHODS FOR IDENTIFYING NEUROPROTECTIVE PKC ACTIVATORS” (priority 2013, published 2016)
# How the values were obtained:
# mTBI mice = test: Minimal traumatic brain injury, MWM cognitive test; type: in vivo; conditions: 5× i.p. over 14 days; for mTBI induced learning deficits (MWM): injured mice
# Method: Protocol: One hour after the minimal traumatic brain injury was induced, the mice received a 5×i.p. bryostatin-1 injection treatment over a period of 14 days, in two injection doses 20 and 30 μg/kg (N=9 in each group). One hour after the last injection of the series, the cognitive ability of the mice was tested in the MWM. Mice were tested for 4 days 6 times a day. On day 5 the platform was removed and the mice memory retention was tested. […] Data was analyzed using repeated measure one way ANOVA and presented as mean±S.E.M. Both doses protected the learning abilities of the injured mice (pb0.01).
# alpha-secretase = conditions: human fibroblasts; Etcheberrigaray et al. 2004; cited from earlier work
# HCN-2 cells = test: Synaptogenesis in HCN-2 cells; type: cell-based, human; conditions: 10 days
# Method: FIG. 9 illustrates that activation of PKC-ε induces synaptogenesis in HCN-2 cells. The HCN-2 cell line was derived from cortical tissue removed from a patient undergoing hemispherectomy for intractable seizures associated with Rasmussen's encephalitis. The cells were treated with either DCPLA-methyl ester or bryostatin-1 for 10 days. […] Thus, PKC-ε activation can induce synaptogenesis in both embryonic and adult neuronal cells.
# HuC and HuD proteins = test: Dendritic spines, presynaptic vesicles and HuC/HuD nuclear export in healthy rats after water maze training; type: in vivo; conditions: 10 μg/kg body weight intraperitoneal, 3 doses every other day; two days after 6-days of training
# Method: Protocol: Non-diseased, healthy brown Norway rats (at 4-5 months old) were used in this study. Two days after 6-days of training, increases in dendritic spines (a, b) and presynaptic vesicle concentration (a, d) within unchanged axonal bouton density (a, c) were correlated with an increase in the nuclear export of HuC and HuD proteins into the dendritic shaft as compared with naive and swim controls (a, e). Those changes were enhanced with bryostatin treatment (10 μg/kg body weight, intraperitoneal injection, 3 doses every other day). Nv=naîve controls; Sw=swim controls; Mz=water maze treatment; and Mz/Br=water maze treatment plus bryostatin treatment).
# [1] = Internal toxicity study: Clinical Chemistry Panel & Hematology Panel; type: in vivo
# Method: Internal tests measuring various biological markers were performed 24 hours after administering a PKC activator (bryostatin, cyclopropanated arachidonic acid, DCPLA, and DHACP6) at 10× the therapeutic dose. The results are shown below in Tables 5-7.
# HL-60 cells = conditions: Kraft et al. 1986; cited from earlier work
# Tg2576 mice = test: Dendritic spines and synapses in hippocampal CA1 area of Tg2576 mice; type: in vivo
# [2] = Bryostatin levels in plasma and brain after intravenous injection; type: in vivo, mice
# Method: Measurements of bryostatin were analyzed at different time points subsequent to administration of a high dose of bryostatin (114 μg/m2). […] The plasma/brain ratio can be greater than 30.
# Protocol: Male C57BL/6M mice (15-20 g, Charles River) were acclimatized for 7-8 days in a non-enriched environment, three mice per cage. Bryostatin (Tocris) was dissolved in DMSO, diluted into 0.9% saline, and injected into the tail vein at doses of 10 and 15 μg/m2. After a fixed period, the mice were anesthetized with CO2 and the brain was frozen on dry ice. Blood was mixed with 0.2 ml 1 mM EDTA in PBS, centrifuged at 100 g for 30 min, and plasma was frozen on dry ice. In some experiments, blood lymphocyte fractions were collected using Ficoll-Paque Plus reagent using the procedure recommended by the manufacturer. All animal procedures were approved by the institutional IACUC.
# Bryostatin was injected into the tail vein of C57BL/6N mice at 10 and 15 μg/m2 (equivalent to 3.50 and 5.25 μg/kg), and brain PKC-ε concentration was measured using Western blots. Brain PKC-ε activation was biphasic, peaking at 0.5 h and slowly declined toward resting levels, even though bryostatin levels continued to increase. This is consistent with the short-lived activation of PKC established previously. […] The bryostatin concentration at 0.5 h was 0.029 nM.
# cerebral ischemia rats = test: Retention of spatial learning and memory after cerebral ischemia (training before ischemia); type: in vivo; conditions: 15 μg/m^2 tail vein, 2 doses/week for 10 doses; second probe test 2 weeks after last dose (FIG. 22)
# Method: Protocol: An initial evaluation of the test rats was undertaken to observe their spatial learning (2 trials/day for 6 days) and memory (a probe test of 1 min, 24 hours after the last trial). Cerebral ischemia was induced 1 day after the probe test, followed by bryostatin-1 (15 μg/m^2) administration through a tail vein (2 doses/week, for 10 doses), starting 24 hours after the end of the ischemic (2-VO)/hypoxic event. A second probe test was performed 2 weeks after the last bryostatin-1 dose. Results are shown in A for the spatial water maze performance of the rats over training trials (2 trials/day for 6 days) before the ischemia/treatment (means±SEM.; trials: F11,383=40.483, P<0.001; groups: F3,383=0.315, P>0.05). Results of the probe test after the training trials before the ischemia and/or treatment are shown in B-E (Quadrant 4 was the target quadrant). Results are shown for the target quadrant ratios before (pre-Isch) and after (post-Isch) the ischemia and/or treatment in F. Results are shown in G for the latency of the first crossing the target location before (pre-Isch) and after (post-Isch) the ischemia and/or treatment. There were eight rats/group (Bry—bryostatin-1; Isch.—cerebral ischemia) (*, P<0.05. NS: P>0.05).
# [3] = i.v. 150 μg/m^2 = 10 × Therapeutic Dose, 24 hours, normalized to Control
# [4] = i.v. 150 μg/m^2 = 10 × Therapeutic Dose, 24 hours, normalized to Normal
# [5] = 30 μg/kg intraperitoneal twice a week from 2 months old, analysis at five months
structure (smiles),measurement,setting,value
"CCC/C=C/C=C/C(=O)O[C@H]1/C(=C/C(=O)OC)C[C@H]2C[C@H]([C@@H](C)O)OC(=O)C[C@H](O)C[C@@H]3C[C@H](OC(C)=O)C(C)(C)[C@](O)(C[C@@H]4C/C(=C/C(=O)OC)C[C@H](/C=C/C(C)(C)[C@]1(O)O2)O4)O3 [Bryostatin, bryostatin-1]","acquisition of the learning task, mTBI group versus control mice",mTBI mice; 20 μg/kg,improved their acquisition of the learning task even beyond that of control mice
same,learning of control uninjured mice,mTBI mice; 20 μg/kg,no effect on uninjured mice
same,mTBI induced learning deficits (MWM),mTBI mice; 20 μg/kg,protected against the mTBI induced learning deficits
same,learning of control uninjured mice,mTBI mice; 30 μg/kg,improved the learning of control uninjured mice
same,mTBI induced learning deficits (MWM),mTBI mice; 30 μg/kg,protected against the mTBI induced learning deficits
same,activation of alpha-secretase (sAPP generation),alpha-secretase,activate the alpha-secretase
same,"differentiation, neuronal branching and punctate colocalization of PSD-95 and synaptophysin",HCN-2 cells,significant differentiation with neuronal branching and increased punctate colocalization of PSD-95 and synaptophysin
same,"training-induced increases in dendritic spines, presynaptic vesicle concentration and nuclear export of HuC and HuD proteins",HuC and HuD proteins,enhanced
same,levels of biological markers as compared to normal levels (toxicity),"[1]; 24 hours after administering 10× the therapeutic dose, summary of Tables 5-7",did not demonstrate statistically significant differences in levels of biological markers as compared to normal levels
same,ALB (Albumin),[1]; [3],91.1 ± 0.8
same,ALP (Alkaline phosphatase),[1]; [3],62.8 ± 10.0
same,ALT (Alanine aminotransferase),[1]; [3],63.6 ± 3.6
same,AST (Aspartate aminotransferase),[1]; [3],75.2 ± 11.3
same,BUN (Blood urea nitrogen),[1]; [3],117.0 ± 4.5
same,CA (Calcium),[1]; [3],89.2 ± 6.1
same,CO2-LC (Bicarbonate),[1]; [3],91.1 ± 4.2
same,CREAT (Creatinine),[1]; [3],80.7 ± 3.5
same,GLU (Glucose),[1]; [3],77.6 ± 8.4
same,K (Potassium),[1]; [3],101.0 ± 3.6
same,NA (Sodium),[1]; [3],94.1 ± 1.9
same,TBILI (Total bilirubin),[1]; [3],78.2 ± 13.0
same,TPROT (Total protein),[1]; [3],91.3 ± 2.8
same,BA (Basophils),[1]; [4],300.0 ± 200.0
same,EO (Eosinophils),[1]; [4],375.0 ± 250.0
same,HCT (Hematocrit),[1]; [4],97.3 ± 21.9
same,Hb (Hemoglobin),[1]; [4],83.4 ± 19.5
same,LY (Lymphocytes),[1]; [4],134.4 ± 55.1
same,MCH (Mean corpuscular hemoglobin),[1]; [4],86.7 ± 4.9
same,MCHC (Mean corpuscular hemoglobin concentration),[1]; [4],85.1 ± 2.8
same,MCV (Mean corpuscular volume),[1]; [4],101.8 ± 2.8
same,MO (Monocytes),[1]; [4],133.3 ± 50.0
same,MPV (Mean platelet volume),[1]; [4],96.2 ± 2.4
same,NE (Neutrophils),[1]; [4],144.8 ± 55.1
same,PLT (Platelet count),[1]; [4],109.4 ± 43.9
same,RBC (Red Blood Cells),[1]; [4],95.3 ± 20.0
same,RDW (Red cell distribution width),[1]; [4],106.8 ± 6.2
same,WBC (White blood cells),[1]; [4],142.3 ± 57.3
same,phorbol ester-induced differentiation of HL-60 cells,HL-60 cells,block phorbol ester-induced differentiation of HL-60 cells
same,mushroom spine-shape dendritic spines,Tg2576 mice; [5],prevented decreases in mushroom spine-shape dendritic spines
same,synapses (electron microscopy),Tg2576 mice; [5],prevented decreases
same,loss of postsynaptic dendritic spines and synapses in the hippocampal CA1 area,Tg2576 mice; Tg2576 mice at 5 months old (FIG. 19),protects against the loss of postsynaptic dendritic spines and synapses
same,brain bryostatin relative to PKC downregulation,"[2]; FIG. 2, brain versus plasma",below PKC downregulation
same,plasma/brain ratio,"[2]; single intravenous injection, 114 μg/m2, mice",greater than 30
same,half-life in the brain as compared to plasma,"[2]; single intravenous injection, high dose 114 μg/m2, mice",extremely long half-life in the brain as compared to in plasma
same,bryostatin concentration at 0.5 h,"[2]; tail vein 10 and 15 μg/m2, C57BL/6N mice, 0.5 h",0.029 nM
same,learning experience and memory after cerebral ischemia,cerebral ischemia rats,rescues learning experience and memory
